For one series, the target named is ABL1 (Homo sapiens, UniProt P00519). Briefly: SelectScreen biochemical kinase profiling. Type of series: binding. The conditions noted are these: 100 nM, read-out: Inhibition (% of control) at 100 nM. The method, then:
(§1) Kinase inhibition data were obtained from SelectScreen® Biochemical Kinase Profiling Service.
(§2) More specifically, test compounds were screened in 160 nL of a 1% DMSO solution in the well of a 384-well plate; kinase/antibody mixtures (8 μL) were diluted to a 2-fold working concentration in an appropriate kinase buffer (3.84 μL) and a 4-fold AlexaFluor® labeled tracer (4 μL) was prepared in the kinase buffer; incubation of test solutions was conducted at room is temperature for 60 minutes; and readout on a fluorescence plate reader was recorded and analyzed.

The target in the next series is ABL1 T315I (Homo sapiens, UniProt P00519, T315I). In words: SelectScreen biochemical kinase profiling. Type of series: binding. The conditions noted are these: 100 nM, read-out: Inhibition (% of control) at 100 nM. As for the experimental part: as §1, §2
The next series has as its target KIT (Homo sapiens, UniProt P10721). Briefly: SelectScreen biochemical kinase profiling. Type of series: binding. As for the experimental part: as §1, §2
The next series concerns the target PDGFR A (Homo sapiens, UniProt P16234). Briefly: SelectScreen biochemical kinase profiling. Type of series: binding. The method, then:
as §1, §2

For another series, the target named is PDGFR B (Homo sapiens, UniProt P09619). In words: SelectScreen biochemical kinase profiling. In kind it is binding. The method, then:
as §1, §2

The target of the next series is RET (Homo sapiens, UniProt P07949). In words: SelectScreen biochemical kinase profiling. In kind it is binding. The conditions noted are these: 100 nM, read-out: Inhibition (% of control) at 100 nM. The method, then: as §1, §2
The next series concerns the target SRC (Homo sapiens, UniProt P12931). In words: SelectScreen biochemical kinase profiling. In kind it is binding. The method, then: as §1, §2
The target in a further series is VEGFR2 (Homo sapiens, UniProt P35968). In words: SelectScreen biochemical kinase profiling. Type of series: binding. The method, then:
as §1, §2

In the next series the test system is 32D-ITD/D835F cells. Briefly: MTS cell viability, 32D cells expressing FLT3-ITD mutant. In kind it is cell-based, Murine. The conditions noted are these: 72-h incubation. The source says: (§3) The five leukemic 32D cell lines were purchased from American Type Culture Collection (ATCC, Manassas, Va., USA). Murine pro-B lymphocyte 32D cell lines were stably transfected with expression vectors that encoded human FLT3 containing an ITD mutation (32D-ITD cells), ITD and D835Y (32D-ITD/D835Y cells), ITD and D835V (32D-ITD/D835V cells), ITD and D835F (32D-ITD/D835F cells), and ITD and F691L (32D-ITD/F691L cells) mutations, which lead to constitutive activation of the FLT3 downstream signaling proteins. The cell viability was assessed with the MTS assay described in PLoS One, 2014, 9, e97116. 32D-ITD/D835Y, 32D-ITD/D835V, 32D-ITD/D835F, 32D-ITD/F691L, and 32D-ITD/F691I cells were seeded in 96-well plates at 1×10^4 cells/mL (100 μL per well) for 24-h incubation. Test compounds (at various concentrations in dimethyl sulfoxide (DMSO) were subsequently added to the culture medium for 72-h incubation. The cell viability was determined by the MTS assay (Promega, Madison, Wis., USA).

The subject of another series is 32D-ITD/F691I cells. The description is as above. The conditions noted are these: Mus musculus, 32D, 72 h, 72-h incubation. Type of series: cell-based, Murine.
Source text: as §3

The test system of a further series is 32D-ITD/F691L cells. The description is as above. In kind it is cell-based, Murine. The conditions noted are these: Mus musculus, 32D, 72 h, 72-h incubation.
Source text: as §3

A further series relates to Colo205 xenografts. In words: Xenograft efficacy, Colo205 model. The conditions noted are these: Colo205 xenografts in nude mice; PO 50 mg/kg, 5 times a week for 2 weeks; 50 mg/kg. Type of series: in vivo. As for the experimental part:
(§4) Male nude mice (Nu-Fox1^nu) of 8 weeks old were purchased from BioLASCO (Taipei, Taiwan, R.O.C.). Human colorectal Colo205, pancreatic Mia-PaCa 2 tumor cells or MOLM-13, 32D-ITD/D835Y leukemia cells were inoculated subcutaneously at 1×10^6 cells each in the nude mice. All human cancer cells were detected as free of Mycoplasma spp before they were injected into animals. The tumor cells grow as xenograft tumors and the tumor size reached approximately 200-250 mm^3 in the nude mice ready for dose treatments. Test compounds were dissolved in 20% 2-hydroxypropy-β-cyclodextrin individually for oral gavage administrations to the nude mice. The tumor-bearing mice were treated with test compounds at various doses, 5 times a week for 2 weeks. Tumor sizes were measured by an electronic caliper and calculated with the formula: tumor size=length×width^2/2. Tumor size and animal body weight were measured twice a week before and after the tumor cell inoculation throughout the observation period. Uses of animals and experimental procedures thereof were approved by the Institutional Animal Care and Use Committee (IACUC) of the National Health Research Institutes.

Series [1] relates to xenografts colo205 nude mice. Briefly: In vivo toxicity study, colo205 model. As for the experimental part: as §4, with “All human cancer cells were detected as free of Mycoplasma spp before they were injected into animals.” left out
Nine weeks old athymic nu/nu nude mice were administered orally at a once daily dose of 25, 50, 100, or 150 mg/kg on days 1-5 and 8-12.

The mark [2] stands for this setting: 100 nM, read-out: Inhibition (% of control) at 100 nM.
The mark [3] stands for this setting: read-out: IC50 value (number in the bracket).

SMILES strings stand for the structures.

SRC, sequence (P12931 whole entry): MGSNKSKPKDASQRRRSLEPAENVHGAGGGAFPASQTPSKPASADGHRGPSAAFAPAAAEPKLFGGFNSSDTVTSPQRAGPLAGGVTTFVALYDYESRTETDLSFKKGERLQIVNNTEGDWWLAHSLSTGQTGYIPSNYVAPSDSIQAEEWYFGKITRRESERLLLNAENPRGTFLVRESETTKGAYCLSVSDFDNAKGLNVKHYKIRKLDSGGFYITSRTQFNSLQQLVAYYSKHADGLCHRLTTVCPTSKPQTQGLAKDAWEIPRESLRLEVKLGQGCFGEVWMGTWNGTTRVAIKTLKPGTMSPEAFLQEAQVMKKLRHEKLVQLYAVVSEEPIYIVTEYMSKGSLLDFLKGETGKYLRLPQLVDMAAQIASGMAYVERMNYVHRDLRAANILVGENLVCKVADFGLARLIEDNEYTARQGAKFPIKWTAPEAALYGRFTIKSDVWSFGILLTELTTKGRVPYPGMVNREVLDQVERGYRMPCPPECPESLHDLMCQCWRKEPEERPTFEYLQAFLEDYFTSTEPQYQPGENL
KIT, sequence (P10721 26-976): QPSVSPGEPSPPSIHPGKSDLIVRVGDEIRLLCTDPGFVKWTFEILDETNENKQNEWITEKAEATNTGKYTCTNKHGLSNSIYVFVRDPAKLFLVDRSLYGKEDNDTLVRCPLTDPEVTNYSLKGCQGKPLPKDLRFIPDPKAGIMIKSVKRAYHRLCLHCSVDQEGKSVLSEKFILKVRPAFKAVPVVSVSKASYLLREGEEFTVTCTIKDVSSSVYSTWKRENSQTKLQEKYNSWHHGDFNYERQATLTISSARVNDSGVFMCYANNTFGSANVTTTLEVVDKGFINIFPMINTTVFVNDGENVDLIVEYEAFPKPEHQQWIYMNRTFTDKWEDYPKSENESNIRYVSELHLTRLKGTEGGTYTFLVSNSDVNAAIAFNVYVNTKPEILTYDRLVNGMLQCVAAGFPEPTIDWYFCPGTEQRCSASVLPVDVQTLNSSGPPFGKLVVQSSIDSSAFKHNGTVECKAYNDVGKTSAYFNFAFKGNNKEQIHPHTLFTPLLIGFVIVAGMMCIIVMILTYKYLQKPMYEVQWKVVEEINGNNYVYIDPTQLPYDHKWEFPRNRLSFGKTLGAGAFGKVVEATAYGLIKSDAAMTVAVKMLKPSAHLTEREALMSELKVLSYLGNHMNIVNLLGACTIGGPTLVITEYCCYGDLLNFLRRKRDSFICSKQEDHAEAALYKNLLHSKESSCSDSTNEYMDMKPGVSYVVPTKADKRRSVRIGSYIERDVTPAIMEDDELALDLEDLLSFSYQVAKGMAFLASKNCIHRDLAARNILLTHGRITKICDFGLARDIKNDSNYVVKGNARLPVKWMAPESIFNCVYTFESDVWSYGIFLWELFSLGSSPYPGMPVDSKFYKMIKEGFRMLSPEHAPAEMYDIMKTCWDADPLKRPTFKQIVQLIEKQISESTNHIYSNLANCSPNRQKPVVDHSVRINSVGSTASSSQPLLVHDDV
PDGFR B, sequence (P09619 33-1106): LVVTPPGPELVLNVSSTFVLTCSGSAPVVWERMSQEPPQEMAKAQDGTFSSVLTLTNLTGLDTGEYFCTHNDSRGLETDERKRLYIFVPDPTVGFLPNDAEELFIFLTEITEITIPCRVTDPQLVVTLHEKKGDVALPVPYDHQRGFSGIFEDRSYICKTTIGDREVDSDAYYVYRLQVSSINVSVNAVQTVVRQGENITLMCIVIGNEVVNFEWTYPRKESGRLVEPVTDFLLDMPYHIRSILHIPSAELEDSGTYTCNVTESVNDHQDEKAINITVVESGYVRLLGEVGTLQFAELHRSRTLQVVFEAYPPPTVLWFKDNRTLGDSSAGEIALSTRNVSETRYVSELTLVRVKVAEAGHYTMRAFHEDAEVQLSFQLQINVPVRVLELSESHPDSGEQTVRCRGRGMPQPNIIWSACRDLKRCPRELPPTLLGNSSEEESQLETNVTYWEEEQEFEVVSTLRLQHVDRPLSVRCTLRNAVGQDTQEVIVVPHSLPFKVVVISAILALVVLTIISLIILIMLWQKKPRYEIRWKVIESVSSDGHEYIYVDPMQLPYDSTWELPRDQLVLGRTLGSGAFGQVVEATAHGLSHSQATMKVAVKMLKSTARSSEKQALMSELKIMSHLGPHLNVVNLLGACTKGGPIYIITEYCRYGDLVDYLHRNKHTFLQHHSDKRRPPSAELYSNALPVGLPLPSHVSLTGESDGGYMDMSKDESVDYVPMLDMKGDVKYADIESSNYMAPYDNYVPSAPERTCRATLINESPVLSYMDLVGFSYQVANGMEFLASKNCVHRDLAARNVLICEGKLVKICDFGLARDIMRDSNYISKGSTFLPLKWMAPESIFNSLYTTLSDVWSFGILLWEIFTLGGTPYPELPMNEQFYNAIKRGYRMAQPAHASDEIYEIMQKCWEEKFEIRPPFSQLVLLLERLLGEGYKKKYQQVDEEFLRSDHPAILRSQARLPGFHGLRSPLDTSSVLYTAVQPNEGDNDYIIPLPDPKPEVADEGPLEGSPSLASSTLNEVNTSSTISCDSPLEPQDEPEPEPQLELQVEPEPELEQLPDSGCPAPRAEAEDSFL
PDGFR A, sequence (P16234 24-1089): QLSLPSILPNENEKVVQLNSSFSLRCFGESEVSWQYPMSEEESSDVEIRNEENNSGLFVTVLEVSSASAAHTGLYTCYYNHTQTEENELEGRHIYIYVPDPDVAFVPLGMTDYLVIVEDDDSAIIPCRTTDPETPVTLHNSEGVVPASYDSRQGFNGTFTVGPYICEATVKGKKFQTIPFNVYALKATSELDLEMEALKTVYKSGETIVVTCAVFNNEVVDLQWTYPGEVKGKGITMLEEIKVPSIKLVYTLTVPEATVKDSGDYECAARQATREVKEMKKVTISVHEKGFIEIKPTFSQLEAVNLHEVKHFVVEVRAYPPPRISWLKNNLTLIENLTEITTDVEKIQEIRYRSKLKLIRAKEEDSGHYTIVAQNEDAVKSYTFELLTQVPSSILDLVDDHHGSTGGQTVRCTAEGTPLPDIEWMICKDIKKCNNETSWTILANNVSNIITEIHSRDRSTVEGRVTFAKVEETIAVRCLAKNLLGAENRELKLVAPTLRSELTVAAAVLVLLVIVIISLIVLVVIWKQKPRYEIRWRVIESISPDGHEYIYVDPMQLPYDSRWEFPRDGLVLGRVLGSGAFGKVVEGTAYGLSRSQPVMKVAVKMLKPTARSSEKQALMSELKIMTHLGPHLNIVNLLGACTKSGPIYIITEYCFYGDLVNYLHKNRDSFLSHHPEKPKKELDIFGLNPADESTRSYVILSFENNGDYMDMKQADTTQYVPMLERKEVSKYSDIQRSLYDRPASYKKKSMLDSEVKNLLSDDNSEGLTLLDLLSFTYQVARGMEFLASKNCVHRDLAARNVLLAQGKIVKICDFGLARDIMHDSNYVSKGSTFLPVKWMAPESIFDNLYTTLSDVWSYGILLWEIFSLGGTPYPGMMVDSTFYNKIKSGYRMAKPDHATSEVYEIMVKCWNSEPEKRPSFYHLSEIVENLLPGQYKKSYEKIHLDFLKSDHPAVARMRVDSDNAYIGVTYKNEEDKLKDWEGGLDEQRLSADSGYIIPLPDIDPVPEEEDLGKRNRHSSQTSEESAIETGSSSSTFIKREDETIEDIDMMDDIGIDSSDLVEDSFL
VEGFR2, sequence (P35968 20-1356): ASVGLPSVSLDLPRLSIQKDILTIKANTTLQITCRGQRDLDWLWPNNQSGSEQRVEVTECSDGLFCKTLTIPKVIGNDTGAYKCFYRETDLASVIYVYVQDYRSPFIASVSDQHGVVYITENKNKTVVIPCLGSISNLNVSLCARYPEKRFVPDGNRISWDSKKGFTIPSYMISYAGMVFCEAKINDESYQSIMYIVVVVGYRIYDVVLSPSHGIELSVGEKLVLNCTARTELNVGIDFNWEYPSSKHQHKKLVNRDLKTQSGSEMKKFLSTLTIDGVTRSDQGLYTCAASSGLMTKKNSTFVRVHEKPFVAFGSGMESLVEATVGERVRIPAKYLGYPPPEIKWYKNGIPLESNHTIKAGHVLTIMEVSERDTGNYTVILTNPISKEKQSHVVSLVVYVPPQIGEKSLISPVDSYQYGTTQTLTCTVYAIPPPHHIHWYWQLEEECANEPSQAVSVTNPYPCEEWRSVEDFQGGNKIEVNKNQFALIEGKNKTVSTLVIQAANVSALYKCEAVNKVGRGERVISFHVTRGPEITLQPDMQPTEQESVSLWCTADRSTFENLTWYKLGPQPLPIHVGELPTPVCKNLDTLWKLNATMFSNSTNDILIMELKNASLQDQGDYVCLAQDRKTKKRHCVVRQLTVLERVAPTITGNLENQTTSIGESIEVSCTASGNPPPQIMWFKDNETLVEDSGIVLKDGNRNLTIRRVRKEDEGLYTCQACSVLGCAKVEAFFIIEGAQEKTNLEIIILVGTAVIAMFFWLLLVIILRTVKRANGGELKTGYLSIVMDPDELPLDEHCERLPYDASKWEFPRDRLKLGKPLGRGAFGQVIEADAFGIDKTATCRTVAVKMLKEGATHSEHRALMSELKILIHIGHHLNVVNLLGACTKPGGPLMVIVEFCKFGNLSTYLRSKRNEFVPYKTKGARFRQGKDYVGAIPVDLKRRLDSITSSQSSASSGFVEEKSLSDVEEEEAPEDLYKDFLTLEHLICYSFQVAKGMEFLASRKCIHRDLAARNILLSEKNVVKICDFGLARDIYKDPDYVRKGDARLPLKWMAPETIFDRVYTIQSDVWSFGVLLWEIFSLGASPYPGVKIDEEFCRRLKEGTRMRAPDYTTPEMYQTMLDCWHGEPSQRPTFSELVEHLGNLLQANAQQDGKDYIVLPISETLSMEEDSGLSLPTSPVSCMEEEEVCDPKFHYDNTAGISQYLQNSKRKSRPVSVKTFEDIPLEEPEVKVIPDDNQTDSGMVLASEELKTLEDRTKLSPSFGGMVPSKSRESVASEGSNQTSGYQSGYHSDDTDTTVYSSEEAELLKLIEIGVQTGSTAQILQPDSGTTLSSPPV

Consider `CCc1cc(NC(=O)Nc2ccc(-c3cnc(Nc4cc(N5CCN(CCO)CC5)nc(C)n4)s3)cc2)no1` [Compound 1, 1-(5-Ethylisoxazol-3-yl)-3-(4-(2-((6-(4-(2-hydroxyethyl)piperazin-1-yl)-2-methylpyrimidin-4-yl)amino)thiazol-5-yl)phenyl)urea], for which the inhibition at 0.1 µM on ABL1 was found to be 81%; at ABL1 T315I, 65%; at KIT (setting [2]), 66%; at PDGFR A (setting [2]), 95%; at PDGFR B (setting [2]), 82%; on RET it was 96%. In addition, the inhibition at 0.1 µM was determined as 96% on SRC (setting [2]) and 95% at VEGFR2 (setting [2]). For the same compound, the IC50 at KIT (setting [3]) amounted to 41 nM; on PDGFR A (setting [3]), 9 nM; at PDGFR B (setting [3]) it was 19 nM; at SRC (setting [3]), 6 nM; on VEGFR2 (setting [3]) it was 19 nM. Moreover, the GI50 with 32D-ITD/D835F cells is 3.2 nM; in the series on 32D-ITD/D835F cells (Mus musculus, 32D, 72 h) it was less than 6 nM; with 32D-ITD/F691I cells, 45 nM; in the series on 32D-ITD/F691L cells, 8.5 nM. In addition, the “Day 18 TGI” value in the series on Colo205 xenografts was more than 80%. Further, the “Mortality (nude mice n = 6)” value in series [1] (PO 50 mg/kg once daily, 5 on 2 off × 2) is 0/6 (50 mg/kg). Besides, the Tolerability result in series [1] (PO once daily, Compounds 1, 2, 3, 4, 6 at 50, 50, 100, 150 and 25 mg/kg) is on record as “well tolerated”.
